From patent US5583113A, “Use of a direct-acting thrombin inhibitor for the manufacture of a medicinal product having thrombolytic activity” (Synthelabo, priority 1992, dated 1996)

Test system: electrical stimulation induced occlusive aortic thrombosis
Assay: Thrombolytic activity in a rat model of electrical stimulation induced occlusive aortic thrombosis
Assay type: in vivo, CD rats
Details: for Area under the curve (cm^2 ± s.e.m.): area under the blood flow trace; for Area under the curve (cm^2 ± s.e.m.) / Number of animals showing thrombolyis: n=8; for Thrombolytic activity (result in words): in the absence of exogenous plasminogen activators
Protocol: The compounds which are usable according to the invention were studied in rats for their activity as thrombolytic agents in a model of electrical stimulation induced occlusive aortic thrombosis.
CD rats weighing 450 g to 500 g are anaesthetized with sodium pentobarbital (60 mg/kg i.p.) and the left renal artery is catheterized. Thrombosis is induced according to the method described by Hladovec (Throm. Haemosts. (1971), 26, 407-410). A segment of abdominal aorta approximately 1 cm in length is exposed between the renal artery and the iliac bifurcation, and an electromagnetic flow probe is placed around this segment to measure blood flow rate, and a bipolar electrode is placed downstream of the probe. After 15 minutes of stabilisation, a 5 mA direct current is applied for 5 minutes to the outer surface of the artery using a stimulator. When the flow rate reaches the zero value, previously determined by clamping the artery between the probe and the electrode, the time to formation of an occlusive thrombus is noted. After 5 minutes of stabilisation of the thrombus, the test compound or the vehicle is injected via the catheter as a 0.5 ml bolus followed by a 60 minute perfusion at 0.1 ml/min. The blood flow rate is recorded during the perfusion period. Thrombolysis is estimated by measuring the area under the blood flow trace, which reflects both the time to, and the extent of recanalisation. The results are expressed as a mean #standard error of the mean.
In animals receiving the vehicle, the abdominal aorta remains occluded throughout the period of administration. In contrast, direct acting thrombin inhibitors increase the area under the curve in a dose-dependent manner and rapidly restore blood flow.

[1] = dose 100 + 20 μg/kg + μg/kg/min
[2] = dose 100 + 20 μg/kg + μg/kg/min (bolus + 60 minute perfusion)
[3] = dose 200 + 40 μg/kg + μg/kg/min
[4] = dose 200 + 40 μg/kg + μg/kg/min (bolus + 60 minute perfusion)
[5] = dose 400 + 80 μg/kg + μg/kg/min

SMILES	% Increase (area under the curve vs vehicle) (dose 25 + 5 μg/kg + μg/kg/min)	Area under the curve (cm^2 ± s.e.m.) (dose 25 + 5 μg/kg + μg/kg/min (bolus + 60 minute perfusion))	Number of animals showing thrombolyis (dose 25 + 5 μg/kg + μg/kg/min)	% Increase (area under the curve vs vehicle) [1]	Area under the curve (cm^2 ± s.e.m.) [2]	Number of animals showing thrombolyis [1]	% Increase (area under the curve vs vehicle) [3]	Area under the curve (cm^2 ± s.e.m.) [4]	Number of animals showing thrombolyis [3]	Thrombolytic activity (result in words)	% Increase (area under the curve vs vehicle) [5]	Area under the curve (cm^2 ± s.e.m.) (dose 400 + 80 μg/kg + μg/kg/min (bolus + 60 minute perfusion))	Number of animals showing thrombolyis [5]	% Increase (area under the curve vs vehicle) (dose 50 + 10 μg/kg + μg/kg/min)	Area under the curve (cm^2 ± s.e.m.) (dose 50 + 10 μg/kg + μg/kg/min (bolus + 60 minute perfusion))	Number of animals showing thrombolyis (dose 50 + 10 μg/kg + μg/kg/min)
CC1CNc2c(cccc2S(=O)(=O)N[C@@H](CCCNC(=N)N)C(=O)N2CC[C@@H](C)C[C@@H]2C(=O)O)C1 (stereo partly drawn) [Argatroban, argatroban]	284%	137.5 ± 45.6 cm^2	4	406%	181.1 ± 99.6 cm^2	3	1186%	460.3 ± 86.5 cm^2	7	have shown thrombolytic activity	–	–	–	–	–	–
CC(=O)N[C@H](Cc1ccccc1)C(=O)N1CCC[C@H]1C(=O)N[C@@H](CCCN=C(N)N)B(O)O [DUP714, Ac-(D-Phe)-Pro-boro-Arg-OH]	–	–	–	620%	339.7 ± 84.7 cm^2	5	667%	362.3 ± 61.1 cm^2	7	have shown thrombolytic activity	1118%	575.3 ± 99.0 cm^2	8	–	–	–
NC(N)=NCCC[C@H](NC(=O)[C@@H]1CCCN1C(=O)[C@H](N)Cc1ccccc1)C(=O)CCl [PPACK, D-Phe-Pro-Arg chloromethyl ketone]	–	–	–	556%	284.8 ± 98.9 cm^2	5	1148%	542.7 ± 75.2 cm^2	7	have shown thrombolytic activity	–	–	–	572%	291.7 ± 96.5 cm^2	5
